Reference: article PMC11123961, “Design, Synthesis, and Biological Evaluation of the Quorum-Sensing Inhibitors of Pseudomonas aeruginosa PAO1” (Molecules, 2024)

Key:
[1] = system: P. aeruginosa PAO1 swarming motility; experiment: Swarming motility analysis; format: cell-based, Pseudomonas aeruginosa; details: 40 μM, 81.25 μM and 162.5 μM, swarming agar plates
Description: 3.2.6. Swarming Motility Analysis
After being inoculated into LB medium, P. aeruginosa PAO1 was cultivated at 37 °C and 150 rpm until OD600 = 1.0. Then, 1 μL of P. aeruginosa PAO1 bacterial medium was inoculated into the center of swarming solid medium (0.8% nutrient broth (BD), 0.5% glucose, 0.3% agar (BD)) and cultured at 30 °C for 16 h. Then, the colonies of the swarming plate were picked and added to the center of the cooled swarming solid medium (0.8% nutrient broth (BD), 0.5% glucose, 0.5% agar (BD)), which had been supplemented with compounds and cultured at 30 °C for 24 h.

P. aeruginosa PAO1 = experiment: Growth activity of PAO1 (OD600 growth curve); format: cell-based, Pseudomonas aeruginosa; details: 162.50, 81.25 and 40.00 μM, OD600 over 24 h
Description: 3.2.4. The Growth of the Compound of PAO1 QS Activity Analysis
P. aeruginosa PAO1 in log phase was diluted to OD600 = 0.05 in fresh LB medium. Then, 98 μL of diluted bacterial solution and 2 μL of Y-31 solution were added to the 96-well plate. The final concentration of Y-31 in each well was 162.50 μM, 81.25 μM, and 40.00 μM, respectively. The pores without the compound Y-31 were used as blank controls. The cells were incubated in an incubator at 37 °C for 24 h, and OD600 was measured at 0 h, 2 h, 4 h, 6 h, 8 h, 10 h, 12 h, and 24 h, respectively.

C. violaceum CV026 QS = experiment: Half-maximal inhibitory concentration against C. violaceum CV026 QS (suppression of violacein production); format: cell-based; details: Chromobacterium violaceum; C6-HSL-induced violacein production, 12 h; mean ± SD of three independent tests; read-out: IC50, anti-CV026 QS activity
Description: In the exploration of the QS inhibitions, C. violaceum CV026, a mini-T5 mutant of C. violaceum ATCC31532, is frequently employed as a biosensor strain. Because C. violaceum CV026 lacks the CviI gene, which directs the synthesis of AHLs, it is unable to manufacture violacein on its own. The violacein reaction can be induced in C. violaceum CV026 by adding exogenous C6-HSL [27]. As a result, the violacein reaction in C. violaceum CV026 can be used to assess the compounds’ suppression of QS, as used in this investigation.
3.2.2. The Half-Maximal Inhibitory Concentration (IC50) of Compounds against C. violaceum CV026 QS [36]
Subsequently, the log phase of C. violaceum CV026 was placed in a 12-well plate (2 mL/well) after being diluted 10-fold with fresh LB medium. The experimental group received 15 μL of the diluted inducer C6-HSL (0.125 mM), and 8 μL of each dilution gradient compound was added to each well, while the positive control group received 8 μL of C10-HSL, and the blank control group received 8 μL of LB medium. The plates were incubated at 30 °C and 130 rpm for 12 h. After centrifuging 1 mL of the culture for 10 min at 11,255 g, the supernatant was discarded. After dissolving the violacein with 500 μL of DMSO, the mixture was centrifuged once more at 11,255 g for 10 min. In order to measure the absorbance at 585 nm, 200 μL of the upper pigment was added to a 96-well plate. The IC50 was calculated using GraphPad Prism 5 according to the formula (absorbance at 585 nm of the test concentration/the absorbance of the control at 585 nm × 100%).

[2] = system: P. aeruginosa PAO1 pyocyanin; experiment: Pyocyanin quantification assay; format: cell-based, Pseudomonas aeruginosa
Description: The method used to perform the pyocyanin quantification assay was previously reported. In short, P. aeruginosa PAO1 was cultivated in LB medium to reach the logarithmic growth phase at 37 °C and 150 rpm. Following this, the medium (2% peptone, 1% K2SO4, 0.3% MgCl2) was diluted 10 times. A 5 mL bacterial culture containing and excluding the compound (162.5 μM, 81.25 μM, and 20 μM) was incubated for 16 h at 37 °C at 150 rpm. The culture was centrifuged at 1665 g for 10 min in order to extract pyocyanin. The supernatant was then collected and extracted using 3 mL of chloroform. The upper aqueous phase was then collected via centrifugation at 1665 g for 10 min after 1 mL of 0.2 M HCl was combined with the chloroform layer. Absorbance was measured at 520 nm. The pyocyanin inhibition rate was calculated as follows = (OD520 blank − OD520 sample)/OD520 blank × 100%.

[3] = Pharmacokinetics in male CD1 mice; format: in vivo
Description: Beijing Pharmaron Inc. carried out pharmacokinetic studies relating to compound Y-31 in mice. All of the animals were kept in a pathogen-free barrier animal facility, and the company’s Animal Care and Use Committee approved the experiments. On the day of administration, the sample solution was made into a 5, 20 mg/kg solution. Following a single dosage of compound Y-31 either intravenously (5 mg/kg, IV) or orally (20 mg/kg, PO) at 0.25, 0.5, 1, 2, 4, 6, 8, and 24 h post-administration, blood samples were taken from CD1 male mice (n = 3). After that, the plasma was centrifuged for […] at 4000 g and 4 °C to yield. The plasma was diluted 3 times with water. For quantitative analysis, a measurement of 2 µL of diluted supernatant was put into the LC/MS/MS apparatus. […] Phoenix WinNonlin 8.0 software was applied to calculate the pharmacokinetic parameters.

[4] = mouse, plasma, IV, 5 mg/kg, male CD1 mice
[5] = mouse, plasma, PO, 20 mg/kg, male CD1 mice

**Q.** For O=C(CCCOc1ccc(I)cc1)NN1CCCOC1=O [Y-31], which “Swarming motility compared to the control group” value [1] is on record?
**A.** significantly reduced swarming motility

**Q.** And the “Inhibition of the growth activity of PAO1” value (P. aeruginosa PAO1)?
**A.** no significant inhibition

**Q.** What about the IC50 (C. violaceum CV026 QS) of the same compound?
**A.** 91.5 ± 3.35 µM

**Q.** What about the “Inhibition rate of pyocyanin” value ([2]; 162.5 μM) of the same compound?
**A.** 22.5%

**Q.** And the inhibition at 40 µM ([2]; Pseudomonas aeruginosa, PAO1, read-out: Inhibition rate of pyocyanin, 40 μM)?
**A.** 10%

**Q.** What about the inhibition at 81.5 µM ([2]; Pseudomonas aeruginosa, PAO1, read-out: Inhibition rate of pyocyanin, 81.5 μM) of the same compound?
**A.** 17.1%

**Q.** What about the inhibition at 162.5 µM ([2]; Pseudomonas aeruginosa, PAO1, read-out: Inhibition rate of pyocyanin, 162.5 μM) of the same compound?
**A.** 22.5%

**Q.** And the AUC [3, 4]?
**A.** 935 ng·h/mL

**Q.** What about the Cmax [3, 4] of the same compound?
**A.** 3290 ng/mL

**Q.** And the Tmax [3, 4]?
**A.** 4.8 min

**Q.** What about the half-life [3, 4] of the same compound?
**A.** 7.8 min

**Q.** What about the bioavailability ([3]; mouse, plasma, PO, 20 mg/kg vs IV 5 mg/kg, male CD1 mice, read-out: F (bioavailability)) of the same compound?
**A.** 30.4%

**Q.** And the AUC [3, 5]?
**A.** 1100 ng·h/mL

**Q.** What about the Cmax [3, 5] of the same compound?
**A.** 1280 ng/mL

**Q.** What about the Tmax [3, 5] of the same compound?
**A.** 15 min

**Q.** What about the half-life [3, 5] of the same compound?
**A.** 311 min

**Q.** What about the “Clinical symptoms during the pharmacokinetic trial” value ([3]; single dose 5 mg/kg IV or 20 mg/kg PO, CD1 male mice) of the same compound?
**A.** no unusual clinical symptoms were noticed
